According to patent publication US11078202B2, “β-lactamase inhibitor and use thereof” (priority 2018, dated 2021):
Where a name gives a salt, the structure may show the parent alone.

Experiments:
Assay type in all cases: cell-based
[1] = test system: Klebsiella pneumoniae XNWB 0002; test: MIC assay of test compounds combined with ceftazidime (8 μg/mL); details: ceftazidime 8 μg/mL fixed
Outline: (§1)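 We recorded each combination MIC according to CLSI after culturing plates at 35±2 °C for 16-20 h. The inoculum consisted of colonies suspended in 0.9% NaCl (OD600 0.1-0.15) and diluted 300-fold with 1.1×CAMHB, mixed with compound dilutions and the partner β-lactam.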

[2] = test system: Klebsiella pneumoniae XNWB 0005; test: as above; details: ceftazidime 8 μg/mL fixed
Outline: as §1

[3] = test system: Klebsiella pneumoniae XNWB 0003; test: as above; details: ceftazidime 8 μg/mL fixed
Outline: as §1

[4] = test system: Klebsiella pneumoniae XNWB 0004; test: as above; details: ceftazidime 8 μg/mL fixed
Outline: as §1

[5] = test system: Acinetobacter baumannii XNWB 0007; test: as above; details: ceftazidime 8 μg/mL fixed
Outline: as §1

[6] = test system: Klebsiella pneumoniae XNWB 0006; test: as above; details: ceftazidime 8 μg/mL fixed
Outline: as §1

[7] = test system: Pseudomonas aeruginosa XNWB 0008; test: as above; details: ceftazidime 8 μg/mL fixed
Outline: as §1

[8] = test system: Klebsiella pneumoniae XNWB 0001; test: as above; details: ceftazidime 8 μg/mL fixed
Outline: as §1

[9] = test system: Klebsiella pneumoniae XNWB 0002; test: MIC assay of test compounds combined with imipenem (4 μg/mL); details: imipenem 4 μg/mL fixed
Outline: as §1

[10] = test system: Klebsiella pneumoniae XNWB 0005; test: as above; details: imipenem 4 μg/mL fixed
Outline: as §1

[11] = test system: Klebsiella pneumoniae XNWB 0003; test: as above; details: imipenem 4 μg/mL fixed
Outline: as §1

[12] = test system: Klebsiella pneumoniae XNWB 0004; test: as above; details: imipenem 4 μg/mL fixed
Outline: as §1

[13] = test system: Acinetobacter baumannii XNWB 0007; test: as above; details: imipenem 4 μg/mL fixed
Outline: as §1

[14] = test system: Klebsiella pneumoniae XNWB 0006; test: as above; details: imipenem 4 μg/mL fixed
Outline: as §1

[15] = test system: Pseudomonas aeruginosa XNWB 0008; test: as above; details: imipenem 4 μg/mL fixed
Outline: as §1

[16] = test system: Klebsiella pneumoniae XNWB 0001; test: as above; details: imipenem 4 μg/mL fixed
Outline: as §1

Compound: O=C1N2C[C@H](N1OS(=O)(=O)O)C1(CC1)C[C@H]2c1nnc(CC2CNC2)o1 [Example 23, (1R,4S)-4-(5-(azetidin-3-ylmethyl)-1,3,4-oxadiazol-2-yl)-6-oxo-5,7-diazaspiro[bicycle [3.2.1]octane-2,1′-cyclopropan]-7-yl sulfate]
- The minimum concentration of test compounds combined with ceftazidime (8 μg/mL) for bacteriostasis [1]: A (A: <8 μg/mL)
- The minimum concentration of test compounds combined with ceftazidime (8 μg/mL) for bacteriostasis [2]: A (A: <8 μg/mL)
- The minimum concentration of test compounds combined with ceftazidime (8 μg/mL) for bacteriostasis [3]: A (A: <8 μg/mL)
- The minimum concentration of test compounds combined with ceftazidime (8 μg/mL) for bacteriostasis [4]: A (A: <8 μg/mL)
- The minimum concentration of test compounds combined with ceftazidime (8 μg/mL) for bacteriostasis [5]: C (C: 16-128 μg/mL)
- The minimum concentration of test compounds combined with ceftazidime (8 μg/mL) for bacteriostasis [6]: A (A: <8 μg/mL)
- The minimum concentration of test compounds combined with ceftazidime (8 μg/mL) for bacteriostasis [7]: B (B: 8-16 μg/mL)
- The minimum concentration of test compounds combined with ceftazidime (8 μg/mL) for bacteriostasis [8]: A (A: <8 μg/mL)
- The minimum concentration of test compounds combined with imipenem (4 μg/mL) for bacteriostasis [9]: A (A: <8 μg/mL)
- The minimum concentration of test compounds combined with imipenem (4 μg/mL) for bacteriostasis [10]: A (A: <8 μg/mL)
- The minimum concentration of test compounds combined with imipenem (4 μg/mL) for bacteriostasis [11]: A (A: <8 μg/mL)
- The minimum concentration of test compounds combined with imipenem (4 μg/mL) for bacteriostasis [12]: A (A: <8 μg/mL)
- The minimum concentration of test compounds combined with imipenem (4 μg/mL) for bacteriostasis [13]: B (B: 8-16 μg/mL)
- The minimum concentration of test compounds combined with imipenem (4 μg/mL) for bacteriostasis [14]: A (A: <8 μg/mL)
- The minimum concentration of test compounds combined with imipenem (4 μg/mL) for bacteriostasis [15]: A (A: <8 μg/mL)
- The minimum concentration of test compounds combined with imipenem (4 μg/mL) for bacteriostasis [16]: A (A: <8 μg/mL)

Compound: CNCCc1nnc([C@@H]2CC3(CC3)[C@@H]3CN2C(=O)N3OS(=O)(=O)O)o1 [Example 24, (1R,4S)-4-(5-(2-(methylamino)ethyl)-1,3,4-oxadiazol-2-yl)-6-oxo-5,7-diazaspiro[bicyclo[3.2.1]octane-2,1′-cyclopropan]-7-yl sulfate]
- The minimum concentration of test compounds combined with ceftazidime (8 μg/mL) for bacteriostasis [1]: A (A: <8 μg/mL)
- The minimum concentration of test compounds combined with ceftazidime (8 μg/mL) for bacteriostasis [2]: A (A: <8 μg/mL)
- The minimum concentration of test compounds combined with ceftazidime (8 μg/mL) for bacteriostasis [3]: A (A: <8 μg/mL)
- The minimum concentration of test compounds combined with ceftazidime (8 μg/mL) for bacteriostasis [4]: A (A: <8 μg/mL)
- The minimum concentration of test compounds combined with ceftazidime (8 μg/mL) for bacteriostasis [5]: C (C: 16-128 μg/mL)
- The minimum concentration of test compounds combined with ceftazidime (8 μg/mL) for bacteriostasis [6]: A (A: <8 μg/mL)
- The minimum concentration of test compounds combined with ceftazidime (8 μg/mL) for bacteriostasis [7]: C (C: 16-128 μg/mL)
- The minimum concentration of test compounds combined with ceftazidime (8 μg/mL) for bacteriostasis [8]: A (A: <8 μg/mL)
- The minimum concentration of test compounds combined with imipenem (4 μg/mL) for bacteriostasis [9]: A (A: <8 μg/mL)
- The minimum concentration of test compounds combined with imipenem (4 μg/mL) for bacteriostasis [10]: A (A: <8 μg/mL)
- The minimum concentration of test compounds combined with imipenem (4 μg/mL) for bacteriostasis [11]: A (A: <8 μg/mL)
- The minimum concentration of test compounds combined with imipenem (4 μg/mL) for bacteriostasis [12]: A (A: <8 μg/mL)
- The minimum concentration of test compounds combined with imipenem (4 μg/mL) for bacteriostasis [13]: A (A: <8 μg/mL)
- The minimum concentration of test compounds combined with imipenem (4 μg/mL) for bacteriostasis [14]: A (A: <8 μg/mL)
- The minimum concentration of test compounds combined with imipenem (4 μg/mL) for bacteriostasis [15]: B (B: 8-16 μg/mL)
- The minimum concentration of test compounds combined with imipenem (4 μg/mL) for bacteriostasis [16]: A (A: <8 μg/mL)

Compound: N[C@H]1C[C@H](c2cc([C@@H]3CC4(CC4)[C@@H]4CN3C(=O)N4OS(=O)(=O)O)no2)C1 [Example 25, (1R,4S)-4-(5-((1S,3S)-3-aminocyclobutyl)isoxazol-3-yl)-6-oxo-5,7-diazaspiro[bicycle [3.2.1]octane-2,1′-cyclopropan]-7-yl sulfate]
- The minimum concentration of test compounds combined with ceftazidime (8 μg/mL) for bacteriostasis [1]: A (A: <8 μg/mL)
- The minimum concentration of test compounds combined with ceftazidime (8 μg/mL) for bacteriostasis [2]: A (A: <8 μg/mL)
- The minimum concentration of test compounds combined with ceftazidime (8 μg/mL) for bacteriostasis [3]: A (A: <8 μg/mL)
- The minimum concentration of test compounds combined with ceftazidime (8 μg/mL) for bacteriostasis [4]: B (B: 8-16 μg/mL)
- The minimum concentration of test compounds combined with ceftazidime (8 μg/mL) for bacteriostasis [5]: C (C: 16-128 μg/mL)
- The minimum concentration of test compounds combined with ceftazidime (8 μg/mL) for bacteriostasis [6]: A (A: <8 μg/mL)
- The minimum concentration of test compounds combined with ceftazidime (8 μg/mL) for bacteriostasis [7]: B (B: 8-16 μg/mL)
- The minimum concentration of test compounds combined with ceftazidime (8 μg/mL) for bacteriostasis [8]: A (A: <8 μg/mL)
- The minimum concentration of test compounds combined with imipenem (4 μg/mL) for bacteriostasis [9]: A (A: <8 μg/mL)
- The minimum concentration of test compounds combined with imipenem (4 μg/mL) for bacteriostasis [10]: A (A: <8 μg/mL)
- The minimum concentration of test compounds combined with imipenem (4 μg/mL) for bacteriostasis [11]: A (A: <8 μg/mL)
- The minimum concentration of test compounds combined with imipenem (4 μg/mL) for bacteriostasis [12]: A (A: <8 μg/mL)
- The minimum concentration of test compounds combined with imipenem (4 μg/mL) for bacteriostasis [13]: C (C: 16-128 μg/mL)
- The minimum concentration of test compounds combined with imipenem (4 μg/mL) for bacteriostasis [14]: A (A: <8 μg/mL)
- The minimum concentration of test compounds combined with imipenem (4 μg/mL) for bacteriostasis [15]: A (A: <8 μg/mL)
- The minimum concentration of test compounds combined with imipenem (4 μg/mL) for bacteriostasis [16]: A (A: <8 μg/mL)

Compound: N[C@H]1C[C@@H](c2cc([C@@H]3CC4(CC4)[C@@H]4CN3C(=O)N4OS(=O)(=O)O)no2)C1 [Example 26, (1R,4S)-4-(5-((1R,3R)-3-aminocyclobutyl)isoxazol-3-yl)-6-oxo-5,7-diazaspiro[bicycle [3.2.1]octane-2,1′-cyclopropan]-7-yl sulfate]
- The minimum concentration of test compounds combined with ceftazidime (8 μg/mL) for bacteriostasis [1]: A (A: <8 μg/mL)
- The minimum concentration of test compounds combined with ceftazidime (8 μg/mL) for bacteriostasis [2]: A (A: <8 μg/mL)
- The minimum concentration of test compounds combined with ceftazidime (8 μg/mL) for bacteriostasis [3]: A (A: <8 μg/mL)
- The minimum concentration of test compounds combined with ceftazidime (8 μg/mL) for bacteriostasis [4]: A (A: <8 μg/mL)
- The minimum concentration of test compounds combined with ceftazidime (8 μg/mL) for bacteriostasis [5]: C (C: 16-128 μg/mL)
- The minimum concentration of test compounds combined with ceftazidime (8 μg/mL) for bacteriostasis [6]: A (A: <8 μg/mL)
- The minimum concentration of test compounds combined with ceftazidime (8 μg/mL) for bacteriostasis [7]: B (B: 8-16 μg/mL)
- The minimum concentration of test compounds combined with ceftazidime (8 μg/mL) for bacteriostasis [8]: A (A: <8 μg/mL)
- The minimum concentration of test compounds combined with imipenem (4 μg/mL) for bacteriostasis [9]: A (A: <8 μg/mL)
- The minimum concentration of test compounds combined with imipenem (4 μg/mL) for bacteriostasis [10]: A (A: <8 μg/mL)
- The minimum concentration of test compounds combined with imipenem (4 μg/mL) for bacteriostasis [11]: A (A: <8 μg/mL)
- The minimum concentration of test compounds combined with imipenem (4 μg/mL) for bacteriostasis [12]: A (A: <8 μg/mL)
- The minimum concentration of test compounds combined with imipenem (4 μg/mL) for bacteriostasis [13]: C (C: 16-128 μg/mL)
- The minimum concentration of test compounds combined with imipenem (4 μg/mL) for bacteriostasis [14]: A (A: <8 μg/mL)
- The minimum concentration of test compounds combined with imipenem (4 μg/mL) for bacteriostasis [15]: A (A: <8 μg/mL)
- The minimum concentration of test compounds combined with imipenem (4 μg/mL) for bacteriostasis [16]: A (A: <8 μg/mL)
